Experiments:
Test in all cases: In vitro antibacterial activity, agar dilution MIC
Assay type in all cases: cell-based
[1] = system: Streptococcus Pneumonia ATCC 6303; details: code XX, BHI agar, 35-37° C., 20 to 24 hours, unit assumed
Method: (§1) Representative compounds of the present invention were assayed in vitro for antibacterial activity as follows: Twelve petri dishes containing successive aqueous dilutions of the test compound mixed with 10 mL of sterilized Brain Heart Infusion (BHI) agar (Difco 0418-01-5) were prepared. Each plate was inoculated with 1:100 (or 1:10 for slow-growing strains, such as Micrococcus and Streptococcus) dilutions of up to 32 different microorganisms, using a Steers replicator block. The inoculated plates were incubated at 35-37° C. for 20 to 24 hours. In addition, a control plate, using BHI agar containing no test compound, was prepared and incubated at the beginning and end of each test.
(§2) An additional plate containing a compound having known susceptibility patterns for the organisms being tested and belonging to the same antibiotic class as the test compound was also prepared and incubated as a further control, as well as to provide test-to-test comparability.
(§3) After incubation, each plate was visually inspected. The minimum inhibitory concentration (MIC) was defined as the lowest concentration of drug yielding no growth, a slight haze, or sparsely isolated colonies on the inoculum spot as compared to the growth control.

[2] = system: Staphylococcus aureus ATCC 6538P; details: code AA, BHI agar, 35-37° C., 20 to 24 hours, unit assumed
Method: as §1, §2, §3

[3] = system: Streptococcus Pneumonia 5979; details: code ZZ, BHI agar, 35-37° C., 20 to 24 hours, unit assumed
Method: as §1, §2, §3

[4] = system: Haemophilislnfluenzae DILL AMP R; details: code WW, BHI agar, 35-37° C., 20 to 24 hours, unit assumed
Method: as §1, §2, §3

[5] = system: Streptococcus pyogenes PIU 2548; details: code NN, BHI agar, 35-37° C., 20 to 24 hours, unit assumed
Method: as §1, §2, §3

[6] = system: Nocardia Asteroides ATCC 99700; details: code VV, BHI agar, 35-37° C., 20 to 24 hours, unit assumed
Method: as §1, §2, §3

[7] = system: Streptococcus Pneumonia 5649; details: code ZZA, BHI agar, 35-37° C., 20 to 24 hours, unit assumed
Method: as §1, §2, §3

[8] = system: Staphylococcus aureus CMX 553; details: code FF, BHI agar, 35-37° C., 20 to 24 hours, unit assumed
Method: as §1, §2, §3

[9] = system: Streptococcus bovis A-5169; details: code JJ, BHI agar, 35-37° C., 20 to 24 hours, unit assumed
Method: as §1, §2, §3

Candida albicans CCH 442 = details: code TT, BHI agar, 35-37° C., 20 to 24 hours, unit assumed
Method: as §1, §2, §3

[10] = system: Streptococcus pyogenes EES61; details: code LL, BHI agar, 35-37° C., 20 to 24 hours, unit assumed
Method: as §1, §2, §3

[11] = system: Mycobacterium smegmatis ATCC 114; details: code UU, BHI agar, 35-37° C., 20 to 24 hours, unit assumed
Method: as §1, §2, §3

Escherichiacoli SS = details: code RR, BHI agar, 35-37° C., 20 to 24 hours, unit assumed
Method: as §1, §2, §3

[12] = system: Micrococcusluteus ATCC 4698; details: code PP, BHI agar, 35-37° C., 20 to 24 hours, unit assumed
Method: as §1, §2, §3

Escherichiacoli DC-2 = details: code SS, BHI agar, 35-37° C., 20 to 24 hours, unit assumed
Method: as §1, §2, §3

[13] = system: Staphylococcus aureus A-5177; details: code BB, BHI agar, 35-37° C., 20 to 24 hours, unit assumed
Method: as §1, §2, §3

[14] = system: Streptococcus pyogenes 930; details: code MM, BHI agar, 35-37° C., 20 to 24 hours, unit assumed
Method: as §1, §2, §3

[15] = system: Staphylococcus aureus A-5278; details: code CC, BHI agar, 35-37° C., 20 to 24 hours, unit assumed
Method: as §1, §2, §3

[16] = system: Staphylococcus epidermidis 3519; details: code HH, BHI agar, 35-37° C., 20 to 24 hours, unit assumed
Method: as §1, §2, §3

[17] = system: Staphylococcus aureus CMX 642A; details: code DD, BHI agar, 35-37° C., 20 to 24 hours, unit assumed
Method: as §1, §2, §3

[18] = system: Staphylococcus aureus NCTC 10649M; details: code EE, BHI agar, 35-37° C., 20 to 24 hours, unit assumed
Method: as §1, §2, §3

[19] = system: Streptococcus Pneumonia GYR 1171; details: code YY, BHI agar, 35-37° C., 20 to 24 hours, unit assumed
Method: as §1, §2, §3

Escherichiacoli JUHL = details: code QQ, BHI agar, 35-37° C., 20 to 24 hours, unit assumed
Method: as §1, §2, §3

[20] = system: Streptococcus agalactiae CMX 508; details: code KK, BHI agar, 35-37° C., 20 to 24 hours, unit assumed
Method: as §1, §2, §3

[21] = system: Staphylococcus aureus 1775; details: code GG, BHI agar, 35-37° C., 20 to 24 hours, unit assumed
Method: as §1, §2, §3

[22] = system: Enterococcusfaecium ATCC X043; details: code II, BHI agar, 35-37° C., 20 to 24 hours, unit assumed
Method: as §1, §2, §3

[23] = system: Micrococcusluteus ATCC 9341; details: code OO, BHI agar, 35-37° C., 20 to 24 hours, unit assumed
Method: as §1, §2, §3

Q: `C#CCOC1(C)CC(C)C(=O)C(C)C2NC(=O)OC2(C)C(CC)OC(=O)C(C)(CC=Cc2ccccc2)C(=O)C(C)C1OC1OC(C)CC(N(C)C)C1O` (stereo not drawn) [Example 9, Compound of formula (II): R^a is —CH2C═CH, R^b is H, Y and Z together are O, T is —NH—, R is —CH2CH═CH-(phenyl)] was tested. Which Antibacterial Activity (MIC) [1] did it give?
A: 1 µg/mL

Q: What about the Antibacterial Activity (MIC) [2] of the same compound?
A: 3.1 µg/mL

Q: And the Antibacterial Activity (MIC) [3]?
A: 64 µg/mL

Q: And the Antibacterial Activity (MIC) [4]?
A: > 64 µg/mL

Q: What about the Antibacterial Activity (MIC) [5] of the same compound?
A: 3.1 µg/mL

Q: What about the Antibacterial Activity (MIC) [6] of the same compound?
A: 1.56 µg/mL

Q: What about the Antibacterial Activity (MIC) [7] of the same compound?
A: 8 µg/mL

Q: And the Antibacterial Activity (MIC) [8]?
A: 3.1 µg/mL

Q: And the Antibacterial Activity (MIC) [9]?
A: 0.78 µg/mL

Q: What about the Antibacterial Activity (MIC) (Candida albicans CCH 442) of the same compound?
A: > 100 µg/mL

Q: And the Antibacterial Activity (MIC) [10]?
A: 1.56 µg/mL

Q: And the Antibacterial Activity (MIC) [11]?
A: 12.5 µg/mL

Q: What about the Antibacterial Activity (MIC) (Escherichiacoli SS) of the same compound?
A: 6.2 µg/mL

Q: What about the Antibacterial Activity (MIC) [12] of the same compound?
A: 3.1 µg/mL

Q: What about the Antibacterial Activity (MIC) (Escherichiacoli DC-2) of the same compound?
A: > 100 µg/mL

Q: What about the Antibacterial Activity (MIC) [13] of the same compound?
A: 3.1 µg/mL

Q: What about the Antibacterial Activity (MIC) [14] of the same compound?
A: 50 µg/mL

Q: What about the Antibacterial Activity (MIC) [15] of the same compound?
A: > 100 µg/mL

Q: What about the Antibacterial Activity (MIC) [16] of the same compound?
A: 6.2 µg/mL

Q: What about the Antibacterial Activity (MIC) [17] of the same compound?
A: 3.1 µg/mL

Q: What about the Antibacterial Activity (MIC) [18] of the same compound?
A: 12.5 µg/mL

Q: What about the Antibacterial Activity (MIC) [19] of the same compound?
A: 1 µg/mL

Q: What about the Antibacterial Activity (MIC) (Escherichiacoli JUHL) of the same compound?
A: > 100 µg/mL

Q: And the Antibacterial Activity (MIC) [20]?
A: 1.56 µg/mL

Q: What about the Antibacterial Activity (MIC) [21] of the same compound?
A: > 100 µg/mL

Q: What about the Antibacterial Activity (MIC) [22] of the same compound?
A: 3.1 µg/mL

Q: And the Antibacterial Activity (MIC) [23]?
A: 1.56 µg/mL

Q: With `CCC1OC(=O)C(C)(O)C(=O)C(C)C(OC2OC(C)CC(N(C)C)C2O)C(C)(OC)CC(C)C(=O)C(C)C2N(CCCCc3ccccc3)C(=O)OC12C` (stereo not drawn) [Example 2, Compound of formula (II): R^a is CH3, R^b is H, Y and Z together are O, T is —N(W(R^g))—, W is —(CH2)p—, p is 4, R^g is phenyl, R is —OH] as the compound, how does the Antibacterial Activity (MIC) [1] read?
A: 0.5 µg/mL

Q: What about the Antibacterial Activity (MIC) [2] of the same compound?
A: 1.56 µg/mL

Q: And the Antibacterial Activity (MIC) [3]?
A: 32 µg/mL

Q: And the Antibacterial Activity (MIC) [4]?
A: 64 µg/mL

Q: And the Antibacterial Activity (MIC) [5]?
A: 0.39 µg/mL

Q: And the Antibacterial Activity (MIC) [6]?
A: 3.1 µg/mL

Q: What about the Antibacterial Activity (MIC) [7] of the same compound?
A: 1 µg/mL

Q: And the Antibacterial Activity (MIC) [8]?
A: 1.56 µg/mL

Q: And the Antibacterial Activity (MIC) [9]?
A: 0.2 µg/mL

Q: And the Antibacterial Activity (MIC) (Candida albicans CCH 442)?
A: 100 µg/mL

Q: What about the Antibacterial Activity (MIC) [10] of the same compound?
A: 0.1 µg/mL

Q: And the Antibacterial Activity (MIC) [11]?
A: 3.1 µg/mL

Q: What about the Antibacterial Activity (MIC) (Escherichiacoli SS) of the same compound?
A: 6.2 µg/mL

Q: And the Antibacterial Activity (MIC) [12]?
A: 0.78 µg/mL

Q: What about the Antibacterial Activity (MIC) (Escherichiacoli DC-2) of the same compound?
A: > 100 µg/mL

Q: And the Antibacterial Activity (MIC) [13]?
A: 1.56 µg/mL

Q: And the Antibacterial Activity (MIC) [14]?
A: 25 µg/mL

Q: And the Antibacterial Activity (MIC) [15]?
A: 100 µg/mL

Q: And the Antibacterial Activity (MIC) [16]?
A: 3.1 µg/mL

Q: What about the Antibacterial Activity (MIC) [17] of the same compound?
A: 3.1 µg/mL

Q: And the Antibacterial Activity (MIC) [18]?
A: 1.56 µg/mL

Q: What about the Antibacterial Activity (MIC) [19] of the same compound?
A: 0.25 µg/mL

Q: And the Antibacterial Activity (MIC) (Escherichiacoli JUHL)?
A: > 100 µg/mL

Q: And the Antibacterial Activity (MIC) [20]?
A: 0.2 µg/mL

Q: And the Antibacterial Activity (MIC) [21]?
A: 100 µg/mL

Q: And the Antibacterial Activity (MIC) [22]?
A: 0.39 µg/mL

Q: And the Antibacterial Activity (MIC) [23]?
A: 0.39 µg/mL

Q: How did the Antibacterial Activity (MIC) [1] turn out when `CCC1OC(=O)C(C)(CC=Cc2ccccc2)C(=O)C(C)C(OC2OC(C)CC(N(C)C)C2O)C(C)(OC)CC(C)C(=O)C(C)C2NC(=O)OC12C` (stereo not drawn) [Example 1, Compound of formula (II): R^a is CH3, R^b is H, Y and Z together are O, T is —NH—, R is —CH2CH═CH-(phenyl)] was run?
A: 8 µg/mL

Q: What about the Antibacterial Activity (MIC) [2] of the same compound?
A: 25 µg/mL

Q: What about the Antibacterial Activity (MIC) [3] of the same compound?
A: 64 µg/mL

Q: What about the Antibacterial Activity (MIC) [4] of the same compound?
A: > 128 µg/mL

Q: And the Antibacterial Activity (MIC) [5]?
A: 12.5 µg/mL

Q: What about the Antibacterial Activity (MIC) [6] of the same compound?
A: 25 µg/mL

Q: And the Antibacterial Activity (MIC) [7]?
A: 16 µg/mL

Q: And the Antibacterial Activity (MIC) [8]?
A: 50 µg/mL

Q: What about the Antibacterial Activity (MIC) [9] of the same compound?
A: 12.5 µg/mL

Q: What about the Antibacterial Activity (MIC) (Candida albicans CCH 442) of the same compound?
A: 100 µg/mL

Q: And the Antibacterial Activity (MIC) [10]?
A: 12.5 µg/mL

Q: What about the Antibacterial Activity (MIC) [11] of the same compound?
A: 25 µg/mL

Q: And the Antibacterial Activity (MIC) (Escherichiacoli SS)?
A: 50 µg/mL

Q: And the Antibacterial Activity (MIC) [12]?
A: 6.2 µg/mL

Q: What about the Antibacterial Activity (MIC) (Escherichiacoli DC-2) of the same compound?
A: > 100 µg/mL

Q: What about the Antibacterial Activity (MIC) [13] of the same compound?
A: 25 µg/mL

Q: What about the Antibacterial Activity (MIC) [14] of the same compound?
A: 50 µg/mL

Q: And the Antibacterial Activity (MIC) [15]?
A: 100 µg/mL

Q: What about the Antibacterial Activity (MIC) [16] of the same compound?
A: 50 µg/mL

Q: What about the Antibacterial Activity (MIC) [17] of the same compound?
A: 25 µg/mL

Q: What about the Antibacterial Activity (MIC) [18] of the same compound?
A: 50 µg/mL

Q: What about the Antibacterial Activity (MIC) [19] of the same compound?
A: 4 µg/mL

Q: And the Antibacterial Activity (MIC) (Escherichiacoli JUHL)?
A: > 100 µg/mL

Q: What about the Antibacterial Activity (MIC) [20] of the same compound?
A: 12.5 µg/mL

Q: What about the Antibacterial Activity (MIC) [21] of the same compound?
A: 100 µg/mL

Q: And the Antibacterial Activity (MIC) [22]?
A: 25 µg/mL

Q: What about the Antibacterial Activity (MIC) [23] of the same compound?
A: 3.1 µg/mL

From patent US6355620B1, “C-2 modified erythromycin derivatives” (Abbott Laboratories, priority 1999, dated 2002)
